Test results from publication PMC5971061, “Differential Effects of Linkers on the Activity of Amphiphilic Tobramycin Antifungals” (Molecules : A Journal of Synthetic Chemistry and Natural …, 2018).

Columns and labels:
[1] = system: C. albicans ATCC 10231 (strain A); assay: MIC, broth microdilution (CLSI M27-A3), yeast strain A; assay type: cell-based, Candida albicans; conditions: as used in the time-kill study, strain A
Description: The final concentrations of compounds 3, 4, 7a, 7b, 9, and 16, as well as that of TOB tested in this study ranged from 0.24–62.5 μg/mL. CAS was used as a positive control and the final concentrations tested for CAS ranged from 0.03–31.3 μg/mL. Briefly, overnight yeast cultures were grown in yeast peptone dextrose (YPD) broth and the cell density was adjusted to an OD600 of 0.12 (~1 × 10^6 CFU/mL) by using a spectrophotometer. Yeast cell suspensions were further diluted to achieve 1–5 × 10^3 CFU/mL in RPMI 1640 medium, and 100 μL of these yeast cells was added to 96-well microtiter plates containing RPMI 1640 medium and titrated compounds. Each test was performed in triplicate. The plates were incubated at 35 °C for 48 h.

[2] = system: C. albicans ATCC 10231 (strain A); assay: Time-kill assay, strain A; assay type: cell-based, Candida albicans
Description: (§1) Time-kill assays were used to assess the inhibitory efficiency of 7b against three yeast strains, C. albicans ATCC 10231 (strain A), C. parapsilosis ATCC 22019 (strain J), and C. neoformans clinical isolate CN1. The protocol for time-kill assays followed methods previously described with minor modifications. Yeast cultures were grown overnight in YPD broth at 35 °C with shaking (200 rpm). A working stock of fungal cells was made by diluting cultures in RPMI 1640 medium to an OD600 of 0.125, approximately 1 × 10^6 CFU/mL. From the working stock, 100 μL of cells was added to 4.9 mL of RPMI 1640 medium in sterile culture tubes, making the starting fungal cell concentration […]. Compounds were then added to the fungal cells. The treatment conditions included sterile control, growth control, TOB (parent; negative control), voriconazole (VOR) at 1× MIC (positive control), 7b at 1× and 4× MIC. The treated fungal cultures were incubated at 35 °C with shaking (200 rpm) for 24 h. The samples were taken from the different treatments at regular time points (0, 3, 6, 9, 12, and 24 h.) and plated in duplicates. For each time point, cultures were vortexed, 100 μL of culture was aspirated, and 10-fold serial dilutions were made in sterile ddH2O. From the appropriate dilutions, 100 μL of fungal suspension was spread on PDA plates and incubated at 35 °C for 48 h before the colony counts were determined. At 24 h, 50 μL of 1 mM resazurin was added to the treatments and incubated at 35 °C with rotation for 2 h in the dark for visual inspection. Experiments were performed in duplicate.

[3] = system: C. neoformans (strain CN1); assay: Time-kill assay, CN1; assay type: cell-based, Cryptococcus neoformans; conditions: controls TOB 15.6 μg/mL and VOR 1× MIC, 24-h period
Description: as §1

Hemolytic activity assay = assay type: cell-based, murine; conditions: mouse, murine red blood cells (mRBCs), mRBCs, 37 °C 1 h, ± SDEV
Description: (§2) The hemolytic activity of compounds 3, 4, 7a, 7b, and 9 as well as the parent compound TOB was determined by using previously described methods with minor modifications. Murine whole blood (1 mL) was suspended in 4 mL of PBS and centrifuged at 1000 rpm for 10 min at room temperature to obtain murine red blood cells (mRBCs). The mRBCs were washed four times in PBS and resuspended in the same buffer to a final concentration of 10^7 erythrocytes/mL. Two-fold serial dilutions of compounds 3, 4, 7a, 7b, and 9 were prepared using 100 μL of PBS buffer in Eppendorf tubes followed by the addition of 100 μL of mRBC suspension that made the final concentration of compounds and mRBCs to be 0.48–62.5 μg/mL and 5 × 10^6 erythrocytes/mL, respectively. The tubes were incubated at 37 °C for 1 h. The tubes with PBS buffer (200 μL) and Triton X-100® (1% v/v, 2 μL) served as the negative (blank) and positive controls, respectively. The percentage of hemolysis was calculated using the following equation: % hemolysis = [(absorbance of sample) − (absorbance of blank)] × 100/(absorbance of positive control).

[4] = system: murine red blood cells (mRBCs); assay: Hemolytic activity assay; assay type: cell-based; conditions: 62.5 μg/mL, mRBCs, 37 °C 1 h, ± SDEV
Description: as §2

SMILES | 1× MIC value [1] [µg/mL] | reduction of CFU ([2]; 1× MIC (7b 3.9 μg/mL; VOR 1.0 μg/mL), after 9 h of treatment) [log10] | effect on growth (time-kill, in words) ([2]; 24-h period, TOB 15.6 μg/mL, VOR 1× MIC 1.0 μg/mL) | effect on growth (time-kill, in words) [3] | hemolysis at 1 h, 0.48 μg/mL (Hemolytic activity assay; 0.48 μg/mL) [%] | hemolysis at 1 h, 0.975 μg/mL (Hemolytic activity assay; 0.975 μg/mL) [%] | hemolysis at 1 h, 1.95 μg/mL (Hemolytic activity assay; 1.95 μg/mL) [%] | hemolysis at 1 h, 3.9 μg/mL (Hemolytic activity assay; 3.9 μg/mL) [%] | hemolysis at 1 h, 7.8 μg/mL (Hemolytic activity assay; 7.8 μg/mL) [%] | hemolysis at 1 h, 15.6 μg/mL (Hemolytic activity assay; 15.6 μg/mL) [%] | hemolysis at 1 h, 31.3 μg/mL (Hemolytic activity assay; 31.3 μg/mL) [%] | % hemolysis [4] [%]
C[C@@H](c1ncncc1F)[C@](O)(Cn1cncn1)c1ccc(F)cc1F [VOR, voriconazole, reference compound] | 1.0 | ≥ 2 | maintained a fungistatic activity up to the 24-h period | little to no growth inhibitory effect |  |  |  |  |  |  |  | 
C[C@@H]1[C@H](O)[C@@H](C)/C=C/C=C/C=C/C=C/C=C/C=C/C=C/[C@H](O[C@@H]2O[C@H](C)[C@@H](O)[C@H](N)[C@@H]2O)C[C@@H]2O[C@](O)(C[C@@H](O)C[C@@H](O)[C@H](O)CC[C@@H](O)C[C@@H](O)CC(=O)O[C@H]1C)C[C@H](O)[C@H]2C(=O)O [AmB, amphotericin B, reference compound] |  |  |  |  | 0 | 0 | 1.7 ± 0.1 | 3.4 ± 0.6 | 3.7 ± 0.7 | 31.9 ± 5.7 | 80.2 ± 8.5 | 90.3 ± 5.7
